Test results reported in ChEMBL document CHEMBL1649076, “Discovery of 5-chloro-N2-[(1S)-1-(5-fluoropyrimidin-2-yl)ethyl]-N4-(5-methyl-1H-pyrazol-3-yl)pyrimidine-2,4-diamine (AZD1480) as a novel inhibitor of the Jak/Stat pathway” (J Med Chem, 2011).
Values belong to the compound of their own block, whether it stands above or below them.

Key:
[1] = Octanol-water partition coefficient, log D of the compound at pH 7.4 by shake flask method; type: physicochemical
[2] = Growth inhibition of mouse BA/F3 cells expressing Tel-JAK2 kinase after 48 hrs by MTS assay; type: functional; settings: BaF3, 48 h
[3] = target: T1, Tyrosine-protein kinase JAK2 (Homo sapiens, UniProt O60674); experiment: Inhibition of JAK2 using 5 mM of ATP
T1 sequence (O60674 whole entry): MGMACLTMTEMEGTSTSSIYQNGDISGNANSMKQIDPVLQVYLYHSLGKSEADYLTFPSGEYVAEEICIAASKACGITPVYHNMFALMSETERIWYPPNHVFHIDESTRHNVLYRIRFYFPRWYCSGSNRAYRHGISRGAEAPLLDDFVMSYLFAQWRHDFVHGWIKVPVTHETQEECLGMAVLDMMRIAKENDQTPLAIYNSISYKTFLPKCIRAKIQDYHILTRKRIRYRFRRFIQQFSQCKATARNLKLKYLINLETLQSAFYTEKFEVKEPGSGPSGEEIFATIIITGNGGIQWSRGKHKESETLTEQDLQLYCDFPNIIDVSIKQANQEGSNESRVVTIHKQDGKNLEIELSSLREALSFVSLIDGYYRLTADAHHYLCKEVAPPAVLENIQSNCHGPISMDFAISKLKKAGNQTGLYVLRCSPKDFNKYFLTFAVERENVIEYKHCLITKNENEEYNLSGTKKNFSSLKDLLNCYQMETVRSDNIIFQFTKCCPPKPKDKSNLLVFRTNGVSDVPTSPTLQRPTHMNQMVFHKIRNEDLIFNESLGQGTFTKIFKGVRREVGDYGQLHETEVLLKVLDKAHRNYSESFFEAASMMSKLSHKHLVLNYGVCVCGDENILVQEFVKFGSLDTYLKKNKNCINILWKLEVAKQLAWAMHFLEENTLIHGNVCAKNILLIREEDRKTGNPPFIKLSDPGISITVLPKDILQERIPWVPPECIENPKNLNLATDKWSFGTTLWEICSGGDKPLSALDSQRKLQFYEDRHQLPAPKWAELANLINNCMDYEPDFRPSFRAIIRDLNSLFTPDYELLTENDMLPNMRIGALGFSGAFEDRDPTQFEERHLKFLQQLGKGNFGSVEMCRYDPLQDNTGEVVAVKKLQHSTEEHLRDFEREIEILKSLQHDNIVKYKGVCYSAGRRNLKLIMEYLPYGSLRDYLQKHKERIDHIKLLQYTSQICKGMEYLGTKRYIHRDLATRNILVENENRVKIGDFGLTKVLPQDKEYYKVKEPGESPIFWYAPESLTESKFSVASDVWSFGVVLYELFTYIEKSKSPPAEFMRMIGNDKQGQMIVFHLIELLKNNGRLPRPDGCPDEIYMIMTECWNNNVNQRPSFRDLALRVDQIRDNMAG

[4] = Aqueous equilibrium solubility of the compound at pH 7.4 by HPLC-UV analysis; type: physicochemical
[5] = target: T1, Tyrosine-protein kinase JAK2; experiment: Inhibition of JAK2 using Km ATP concentration
[6] = target: T2, Tyrosine-protein kinase JAK3 (Homo sapiens, UniProt P52333); experiment: Inhibition of JAK3 using 5 mM of ATP
T2 sequence (P52333 whole entry): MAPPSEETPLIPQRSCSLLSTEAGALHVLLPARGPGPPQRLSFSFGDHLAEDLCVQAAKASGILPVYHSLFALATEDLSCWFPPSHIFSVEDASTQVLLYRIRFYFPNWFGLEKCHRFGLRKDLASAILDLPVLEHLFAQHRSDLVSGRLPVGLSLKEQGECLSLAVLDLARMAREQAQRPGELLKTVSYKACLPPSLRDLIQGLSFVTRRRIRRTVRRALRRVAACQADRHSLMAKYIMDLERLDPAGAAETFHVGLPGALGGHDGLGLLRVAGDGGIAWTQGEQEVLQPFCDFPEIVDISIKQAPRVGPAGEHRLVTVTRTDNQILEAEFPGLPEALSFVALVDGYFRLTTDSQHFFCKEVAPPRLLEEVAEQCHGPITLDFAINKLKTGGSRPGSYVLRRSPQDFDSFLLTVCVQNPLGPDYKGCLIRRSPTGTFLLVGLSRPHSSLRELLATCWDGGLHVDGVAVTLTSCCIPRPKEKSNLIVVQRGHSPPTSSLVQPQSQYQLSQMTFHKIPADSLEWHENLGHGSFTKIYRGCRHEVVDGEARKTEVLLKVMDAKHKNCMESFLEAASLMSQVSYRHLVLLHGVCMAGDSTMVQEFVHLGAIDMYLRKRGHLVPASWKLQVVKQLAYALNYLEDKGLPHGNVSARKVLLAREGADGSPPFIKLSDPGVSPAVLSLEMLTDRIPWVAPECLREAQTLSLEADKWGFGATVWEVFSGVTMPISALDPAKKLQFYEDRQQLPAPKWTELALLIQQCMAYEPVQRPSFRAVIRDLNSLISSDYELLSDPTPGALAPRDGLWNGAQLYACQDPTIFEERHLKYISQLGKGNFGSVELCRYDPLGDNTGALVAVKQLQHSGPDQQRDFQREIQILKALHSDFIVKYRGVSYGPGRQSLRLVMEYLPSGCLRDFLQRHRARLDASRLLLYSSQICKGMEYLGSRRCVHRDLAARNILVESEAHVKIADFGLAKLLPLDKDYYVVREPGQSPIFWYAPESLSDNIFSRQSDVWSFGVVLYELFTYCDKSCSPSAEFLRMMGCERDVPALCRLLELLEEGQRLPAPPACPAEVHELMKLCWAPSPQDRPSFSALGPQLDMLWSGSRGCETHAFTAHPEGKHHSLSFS

Liver microsomes = experiment: Intrinsic clearance in rat liver microsomes assessed per mg of protein at 2 uM by LCMS/MS analysis; type: ADME, Microsome
[7] = Observed clearance in Han Wistar rat at 10 mg/kg, po and 3 mg/kg, iv; type: ADME, organism-based; settings: in vivo
[8] = Volume of distribution at steady state in Han Wistar rat at 10 mg/kg, po and 3 mg/kg, iv; type: ADME, organism-based; settings: in vivo, read-out: Vdss
[9] = Half life in Han Wistar rat at 10 mg/kg, po and 3 mg/kg, iv; type: ADME, organism-based; settings: in vivo
[10] = Oral bioavailability in Han Wistar rat at 10 mg/kg; type: ADME, organism-based; settings: in vivo
[11] = AUC (0 to 24 hrs) in Han Wistar rat at 10 mg/kg, po; type: ADME, organism-based; set-up: time < 24 hr, dose 10 mg/kg, route oral; settings: plasma
[12] = target: High affinity nerve growth factor receptor (Homo sapiens, UniProt P04629); experiment: Inhibition of TrkA
Chain of High affinity nerve growth factor receptor (P04629 whole entry): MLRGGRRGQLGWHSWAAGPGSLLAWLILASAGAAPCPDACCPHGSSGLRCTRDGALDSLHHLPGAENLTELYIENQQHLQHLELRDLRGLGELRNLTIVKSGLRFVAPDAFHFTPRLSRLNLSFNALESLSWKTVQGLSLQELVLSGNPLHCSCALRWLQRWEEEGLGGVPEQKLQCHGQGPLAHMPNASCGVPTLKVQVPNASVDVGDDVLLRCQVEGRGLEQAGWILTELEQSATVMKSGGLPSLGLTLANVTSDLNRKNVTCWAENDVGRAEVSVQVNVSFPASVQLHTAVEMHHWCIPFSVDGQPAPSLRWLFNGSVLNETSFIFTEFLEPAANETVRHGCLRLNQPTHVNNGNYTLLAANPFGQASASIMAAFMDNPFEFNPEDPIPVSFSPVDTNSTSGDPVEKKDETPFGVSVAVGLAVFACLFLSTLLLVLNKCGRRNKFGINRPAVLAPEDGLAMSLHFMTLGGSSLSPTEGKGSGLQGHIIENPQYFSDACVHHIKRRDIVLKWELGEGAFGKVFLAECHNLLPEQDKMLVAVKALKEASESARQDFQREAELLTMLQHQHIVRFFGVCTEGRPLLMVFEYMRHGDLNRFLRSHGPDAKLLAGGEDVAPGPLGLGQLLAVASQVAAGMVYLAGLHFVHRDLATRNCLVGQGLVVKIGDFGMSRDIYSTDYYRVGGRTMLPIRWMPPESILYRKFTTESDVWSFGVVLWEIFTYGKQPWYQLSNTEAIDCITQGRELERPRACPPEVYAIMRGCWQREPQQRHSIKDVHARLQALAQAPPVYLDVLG

Mus musculus [13] = experiment: Antitumor activity against mouse BA/F3 cells expressing Tel-JAK2 xenografted in NCr mouse assessed as reduction of phosphorylated Stat5 level in spleen at 5 mg/kg, po after 2 hrs by Western blotting; type: functional, BaF3; set-up: scale not given: the % may be the effect or the level left
[14] = Observed clearance in Beagle dog at 2.5 mg/kg, iv; type: ADME, organism-based, Canis lupus familiaris; set-up: dose 2.5 mg/kg, route intravenous; settings: in vivo
[15] = Growth inhibition of human UKE1 cells expressing Jak2 V617F mutant after 48 hrs by MTS assay; type: functional; settings: UKE1, 48 h
Mus musculus [16] = experiment: Antitumor activity against mouse BA/F3 cells expressing Tel-JAK2 xenografted in NCr mouse assessed as reduction of phosphorylated Stat5 level in spleen at 10 mg/kg, po after 8 hrs by Western blotting; type: functional, BaF3; set-up: scale not given: the % may be the effect or the level left
[17] = Inhibition of Stat5 phosphorylation in mouse Ba/F3 cells expressing TEL-Jak2; type: cell-based; settings: BaF3
Mus musculus [18] = experiment: Antitumor activity against mouse BA/F3 cells expressing Tel-JAK2 xenografted in NCr mouse assessed as reduction of phosphorylated Stat5 level in spleen at 5 mg/kg, po after 6 hrs by Western blotting; type: functional, BaF3; set-up: scale not given: the % may be the effect or the level left
[19] = Antitumor activity against mouse BA/F3 cells expressing Tel-JAK2-luc xenografted in NCr mouse assessed as reduction of bioluminescent signal at 30 mg/kg, po bid measured on day 9 post-tumor cell implantation relative to control; type: functional, BaF3
[20] = Half life in Beagle dog at 10 mg/kg, po; type: ADME, organism-based, Canis lupus familiaris; set-up: dose 10 mg/kg, route oral; settings: in vivo
[21] = Volume of distribution at steady state in CD1 mouse at 3 mg/kg, iv; type: ADME, organism-based; set-up: dose 3 mg/kg, route intravenous; settings: in vivo, read-out: Vdss
[22] = Half life in CD1 mouse at 10 mg/kg, po; type: ADME, organism-based; set-up: dose 10 mg/kg, route oral; settings: in vivo
[23] = Growth inhibition of mouse BA/F3 cells expressing Tel-JAK1 kinase after 48 hrs by MTS assay; type: functional; settings: BaF3, 48 h
[24] = Half life in CD1 mouse at 3 mg/kg, iv; type: ADME, organism-based; set-up: dose 3 mg/kg, route intravenous; settings: in vivo
HEL = experiment: Growth inhibition of human HEL cells expressing Jak2 V617F mutant after 48 hrs by MTS assay; type: functional
[25] = Half life in Beagle dog at 2.5 mg/kg, iv; type: ADME, organism-based, Canis lupus familiaris; set-up: dose 2.5 mg/kg, route intravenous; settings: in vivo
[26] = Volume of distribution at steady state in Beagle dog at 2.5 mg/kg, iv; type: ADME, organism-based, Canis lupus familiaris; set-up: dose 2.5 mg/kg, route intravenous; settings: in vivo, read-out: Vdss
[27] = Growth inhibition of mouse BA/F3 cells expressing Tel-JAK3 kinase after 48 hrs by MTS assay; type: functional; settings: BaF3, 48 h
[28] = Antitumor activity against mouse BA/F3 cells expressing Tel-JAK2-luc xenografted in NCr mouse assessed as reduction of bioluminescent signal at 50 mg/kg, po bid measured on day 9 post-tumor cell implantation relative to control; type: functional, BaF3
[29] = Oral bioavailability in CD1 mouse at 10 mg/kg; type: ADME, organism-based; settings: in vivo
[30] = Oral bioavailability in Beagle dog at 10 mg/kg; type: ADME, organism-based, Canis lupus familiaris; settings: in vivo
[31] = Growth inhibition of mouse BA/F3 cells expressing Tel-Tyk2 kinase after 48 hrs by MTS assay; type: functional; settings: BaF3, 48 h
[32] = AUC (0 to 12 hrs) in CD1 mouse at 10 mg/kg, po; type: ADME, organism-based; set-up: time < 12 hr, dose 10 mg/kg, route oral; settings: plasma
[33] = AUC (0 to 12 hrs) in Beagle dog at 10 mg/kg, po; type: ADME, organism-based, Canis lupus familiaris; set-up: time < 12 hr, dose 10 mg/kg, route oral; settings: plasma
[34] = Growth inhibition of human SET2 cells expressing Jak2 V617F mutant after 48 hrs by MTS assay; type: functional; settings: SET-2, 48 h
[35] = Observed clearance in CD1 mouse at 3 mg/kg, iv; type: ADME, organism-based; set-up: dose 3 mg/kg, route intravenous; settings: in vivo

SMILES: Cc1cc(Nc2cc(N3CCOCC3)nc(N[C@@H](C)c3ncc(F)cn3)n2)[nH]n1
logD [1]: < 2.6 | GI50 [2]: 50 nM | clearance (Liver microsomes): 10 µL/min/mg | clearance [7]: 18 mL/min/kg | IC50 [3]: < 3 nM | Vd [8]: 1.4 L/kg | half-life [9]: 1.1 h | solubility thermodynamic [4]: > 460 µM | IC50 [5]: < 3 nM | bioavailability [10]: 64% | IC50 [6]: 30 nM

SMILES: Cc1cc(Nc2nc(N[C@@H](C)c3ncc(F)cn3)nc(N3CCOCC3)c2F)n[nH]1
logD [1]: < 2.6 | GI50 [2]: 13 nM | clearance [7]: 14 mL/min/kg | IC50 [3]: < 3 nM | Vd [8]: 1.7 L/kg | half-life [9]: 1.9 h | solubility thermodynamic [4]: > 460 µM | IC50 [5]: < 3 nM | bioavailability [10]: 34% | IC50 [6]: > 30000 nM

SMILES: Cc1cc(Nc2nc(N[C@@H](C)c3ncc(F)cn3)nc(N3CCOCC3)c2Cl)n[nH]1
logD [1]: < 2.6 | GI50 [2]: 17 nM | clearance (Liver microsomes): 16 µL/min/mg | clearance [7]: 221 mL/min/kg | IC50 [3]: 9 nM | Vd [8]: 4.6 L/kg | half-life [9]: 0.36 h | solubility thermodynamic [4]: > 460 µM | IC50 [5]: < 3 nM | bioavailability [10]: 20% | IC50 [6]: 11800 nM

SMILES: Cc1cc(Nc2nc(N[C@@H](C)c3ncc(F)cn3)ncc2Cl)n[nH]1 [AZD-1480]
logD [1]: < 2.6 | IC50 [12]: 3 nM | Activity (Mus musculus [13]): 90% | GI50 [2]: 60 nM | clearance [14]: 2 mL/min/kg | GI50 [15]: 54 nM | clearance (Liver microsomes): 11 µL/min/mg | clearance [7]: 8.9 mL/min/kg | Activity (Mus musculus [16]): >70% | IC50 [17]: 46 nM | Activity (Mus musculus [18]): 50% | Activity [19]: 9 | half-life [20]: 8.5 h | IC50 [3]: 58 nM | Vd [8]: 3.6 L/kg | half-life [9]: 4.7 h | solubility thermodynamic [4]: > 460 µM | Vd [21]: 1.1 L/kg | half-life [22]: 2 h | IC50 [5]: < 3 nM | GI50 [23]: 700 nM | half-life [24]: 1.5 h | GI50 (HEL): 390 nM | half-life [25]: 6.9 h | Vd [26]: 1 L/kg | GI50 [27]: 2100 nM | bioavailability [10]: 47% | Activity [28]: 44 | bioavailability [29]: 100% | bioavailability [30]: 100% | GI50 [31]: 2000 nM | IC50 [6]: 1360 nM | AUC(0-t) at 12 h [32]: 57.6 µM·h | AUC(0-t) at 12 h [33]: 350 µM·h | GI50 [34]: 16 nM | clearance [35]: 13.5 mL/min/kg

The next lines start with results.

logD [1]: < 2.6 | IC50 [3]: 488 nM | solubility thermodynamic [4]: > 460 µM | IC50 [5]: 9 nM | IC50 [6]: > 30000 nM
SMILES: C[C@H](Nc1ncc(Cl)c(Nc2cc(N(C)C)[nH]n2)n1)c1ncc(F)cn1
GI50 [2]: 1200 nM

logD [1]: < 2.6 | IC50 [3]: 815 nM | solubility thermodynamic [4]: > 460 µM | IC50 [5]: 16 nM | IC50 [6]: > 30000 nM
SMILES: C[C@H](Nc1ncc(F)c(Nc2cc(N(C)C)[nH]n2)n1)c1ncc(F)cn1
GI50 [2]: 2200 nM

logD [1]: < 2.6 | IC50 [3]: 30 nM | solubility thermodynamic [4]: > 460 µM | IC50 [5]: 10 nM | IC50 [6]: 200 nM
SMILES: COc1cc(Nc2cc(N3CCOCC3)nc(N[C@@H](C)c3ncc(F)cn3)n2)n[nH]1
GI50 [2]: 73 nM

logD [1]: < 2.6 | IC50 [3]: 8 nM | solubility thermodynamic [4]: > 460 µM | IC50 [5]: 4 nM | IC50 [6]: 30500 nM
SMILES: COc1cc(Nc2nc(N[C@@H](C)c3ncc(F)cn3)nc(N3CCOCC3)c2F)n[nH]1
GI50 [2]: 240 nM

logD [1]: < 2.6 | IC50 [3]: 90 nM | solubility thermodynamic [4]: > 460 µM | IC50 [5]: 4 nM | IC50 [6]: 2960 nM
SMILES: COc1cc(Nc2nc(N[C@@H](C)c3ncc(F)cn3)nc(N3CCOCC3)c2Cl)n[nH]1
GI50 [2]: 1300 nM

logD [1]: < 2.6 | clearance [7]: 19 mL/min/kg | Vd [8]: 3 L/kg | half-life [9]: 2.9 h | solubility thermodynamic [4]: > 460 µM | AUC(0-t) at 24 h [11]: 33.5 µM·h
SMILES: Cc1cc(Nc2nc(N[C@H](C)c3ncc(F)cn3)ncc2Cl)n[nH]1
GI50 [2]: 11000 nM
